# From PubChem BioAssay AID1259407 (Chemical Carcinogenesis Research Information System (CCRIS), 2018)
# Calls of active or inactive are those of the source. The rule behind the calls is not given here.
# System: CCRIS mutagenicity, Ames/micronucleus/aberration tests
# Experiment: CCRIS mutagenicity studies
structure (smiles),measurement,setting,value
CC=O,mutagenic call,"End Point: In vitro chromosomal aberrations, Test System: Chinese hamster lung (CHL/IU) cells, Metabolic Activation: None",active; positive (structural changes)
same,mutagenic call,"End Point: In vitro chromosomal aberrations, Test System: Chinese hamster lung (CHL/IU) cells, Metabolic Activation: Rat, Liver, S9, Phenobarbital and 5,6-benzoflavone",active; positive (structural changes)
same,mutagenic call,"End Point: In vivo micronucleus, Test System: Peripheral blood reticulocytes, Species: Mouse, Strain/Sex: Aldh2+/+ aldehyde dehydrogenase-2 sufficient /male, Route: Inhalation",inactive; negative
same,mutagenic call,"End Point: In vivo micronucleus, Test System: Peripheral blood reticulocytes, Species: Mouse, Strain/Sex: Aldh2+/+ aldehyde dehydrogenase-2 sufficient /male, Route: Oral",inactive; negative
same,mutagenic call,"End Point: In vivo micronucleus, Test System: Peripheral blood reticulocytes, Species: Mouse, Strain/Sex: Aldh2-/- aldehyde dehydrogenase-2 null /male, Route: Inhalation",active; positive
same,mutagenic call,"End Point: In vivo micronucleus, Test System: Peripheral blood reticulocytes, Species: Mouse, Strain/Sex: Aldh2-/- aldehyde dehydrogenase-2 null /male, Route: Oral",active; positive
same,mutagenic call,"Test System: AMES SALMONELLA TYPHIMURIUM, Strain/Indicator: TA98, Metabolic Activation: HAMSTER, LIVER, S-9, AROCLOR 1254, Method: STANDARD PLATE",inactive; negative
same,mutagenic call,"Test System: AMES SALMONELLA TYPHIMURIUM, Strain/Indicator: TA98, Metabolic Activation: NONE, Method: GAS EXPOSURE",inactive; negative
same,mutagenic call,"Test System: AMES SALMONELLA TYPHIMURIUM, Strain/Indicator: TA98, Metabolic Activation: NONE, Method: PREINCUBATION",inactive; negative
same,mutagenic call,"Test System: AMES SALMONELLA TYPHIMURIUM, Strain/Indicator: TA98, Metabolic Activation: NONE, Method: STANDARD PLATE",inactive; negative
same,mutagenic call,"Test System: AMES SALMONELLA TYPHIMURIUM, Strain/Indicator: TA98, Metabolic Activation: RAT LIVER S-9, PHENOBARBITAL AND BETA-NAPHTHOFLAVONE, Method: PREINCUBATION",inactive; negative
same,mutagenic call,"Test System: AMES SALMONELLA TYPHIMURIUM, Strain/Indicator: TA98, Metabolic Activation: RAT, LIVER, S-9, AROCLOR 1254, Method: PREINCUBATION",inactive; negative
same,mutagenic call,"Test System: AMES SALMONELLA TYPHIMURIUM, Strain/Indicator: TA98, Metabolic Activation: RAT, LIVER, S-9, AROCLOR 1254, Method: STANDARD PLATE",inactive; negative
same,mutagenic call,"Test System: AMES SALMONELLA TYPHIMURIUM, Strain/Indicator: TA98, Metabolic Activation: RAT, LIVER, S-9, PHENOBARBITAL AND BETA-NAPHTHOFLAVONE, Method: GAS EXPOSURE",inactive; negative
same,mutagenic call,"Test System: AMES SALMONELLA TYPHIMURIUM, Strain/Indicator: TA100, Metabolic Activation: HAMSTER, LIVER, S-9, AROCLOR 1254, Method: STANDARD PLATE",inactive; negative
same,mutagenic call,"Test System: AMES SALMONELLA TYPHIMURIUM, Strain/Indicator: TA100, Metabolic Activation: MOUSE LIVER S-9, AROCLOR 1254, Method: VAPOR PHASE",inactive; negative
same,mutagenic call,"Test System: AMES SALMONELLA TYPHIMURIUM, Strain/Indicator: TA100, Metabolic Activation: NONE, Method: GAS EXPOSURE",inactive; negative
same,mutagenic call,"Test System: AMES SALMONELLA TYPHIMURIUM, Strain/Indicator: TA100, Metabolic Activation: NONE, Method: PREINCUBATION",inactive; negative
same,mutagenic call,"Test System: AMES SALMONELLA TYPHIMURIUM, Strain/Indicator: TA100, Metabolic Activation: NONE, Method: STANDARD PLATE",inactive; negative
same,mutagenic call,"Test System: AMES SALMONELLA TYPHIMURIUM, Strain/Indicator: TA100, Metabolic Activation: NONE, Method: VAPOR PHASE",inactive; negative
same,mutagenic call,"Test System: AMES SALMONELLA TYPHIMURIUM, Strain/Indicator: TA100, Metabolic Activation: RAT LIVER S-9, AROCLOR 1254, Method: VAPOR PHASE",inactive; negative
same,mutagenic call,"Test System: AMES SALMONELLA TYPHIMURIUM, Strain/Indicator: TA100, Metabolic Activation: RAT LIVER S-9, PHENOBARBITAL AND BETA-NAPHTHOFLAVONE, Method: PREINCUBATION",inactive; negative
same,mutagenic call,"Test System: AMES SALMONELLA TYPHIMURIUM, Strain/Indicator: TA100, Metabolic Activation: RAT, LIVER, S-9, AROCLOR 1254, Method: PREINCUBATION",inactive; negative
same,mutagenic call,"Test System: AMES SALMONELLA TYPHIMURIUM, Strain/Indicator: TA100, Metabolic Activation: RAT, LIVER, S-9, AROCLOR 1254, Method: STANDARD PLATE",inactive; negative
same,mutagenic call,"Test System: AMES SALMONELLA TYPHIMURIUM, Strain/Indicator: TA100, Metabolic Activation: RAT, LIVER, S-9, PHENOBARBITAL AND BETA-NAPHTHOFLAVONE, Method: GAS EXPOSURE",inactive; negative
same,mutagenic call,"Test System: AMES SALMONELLA TYPHIMURIUM, Strain/Indicator: TA102, Metabolic Activation: MOUSE LIVER S-9, AROCLOR 1254, Method: VAPOR PHASE",inactive; negative
same,mutagenic call,"Test System: AMES SALMONELLA TYPHIMURIUM, Strain/Indicator: TA102, Metabolic Activation: NONE, Method: PREINCUBATION",inactive; negative
same,mutagenic call,"Test System: AMES SALMONELLA TYPHIMURIUM, Strain/Indicator: TA102, Metabolic Activation: NONE, Method: VAPOR PHASE",inactive; negative
same,mutagenic call,"Test System: AMES SALMONELLA TYPHIMURIUM, Strain/Indicator: TA102, Metabolic Activation: RAT, LIVER, S-9, AROCLOR 1254, Method: PREINCUBATION",inactive; negative
same,mutagenic call,"Test System: AMES SALMONELLA TYPHIMURIUM, Strain/Indicator: TA104, Metabolic Activation: MOUSE LIVER S-9, AROCLOR 1254, Method: VAPOR PHASE",inactive; negative
same,mutagenic call,"Test System: AMES SALMONELLA TYPHIMURIUM, Strain/Indicator: TA104, Metabolic Activation: NONE, Method: VAPOR PHASE",inactive; negative
same,mutagenic call,"Test System: AMES SALMONELLA TYPHIMURIUM, Strain/Indicator: TA104, Metabolic Activation: RAT LIVER S-9, AROCLOR 1254, Method: VAPOR PHASE",inactive; negative
same,mutagenic call,"Test System: AMES SALMONELLA TYPHIMURIUM, Strain/Indicator: TA1535, Metabolic Activation: HAMSTER, LIVER, S-9, AROCLOR 1254, Method: STANDARD PLATE",inactive; negative
same,mutagenic call,"Test System: AMES SALMONELLA TYPHIMURIUM, Strain/Indicator: TA1535, Metabolic Activation: NONE, Method: GAS EXPOSURE",inactive; negative
same,mutagenic call,"Test System: AMES SALMONELLA TYPHIMURIUM, Strain/Indicator: TA1535, Metabolic Activation: NONE, Method: PREINCUBATION",inactive; negative
same,mutagenic call,"Test System: AMES SALMONELLA TYPHIMURIUM, Strain/Indicator: TA1535, Metabolic Activation: NONE, Method: STANDARD PLATE",inactive; negative
same,mutagenic call,"Test System: AMES SALMONELLA TYPHIMURIUM, Strain/Indicator: TA1535, Metabolic Activation: RAT LIVER S-9, PHENOBARBITAL AND BETA-NAPHTHOFLAVONE, Method: PREINCUBATION",inactive; negative
same,mutagenic call,"Test System: AMES SALMONELLA TYPHIMURIUM, Strain/Indicator: TA1535, Metabolic Activation: RAT, LIVER, S-9, AROCLOR 1254, Method: STANDARD PLATE",inactive; negative
same,mutagenic call,"Test System: AMES SALMONELLA TYPHIMURIUM, Strain/Indicator: TA1535, Metabolic Activation: RAT, LIVER, S-9, PHENOBARBITAL AND BETA-NAPHTHOFLAVONE, Method: GAS EXPOSURE",inactive; negative
same,mutagenic call,"Test System: AMES SALMONELLA TYPHIMURIUM, Strain/Indicator: TA1537, Metabolic Activation: HAMSTER, LIVER, S-9, AROCLOR 1254, Method: STANDARD PLATE",inactive; negative
same,mutagenic call,"Test System: AMES SALMONELLA TYPHIMURIUM, Strain/Indicator: TA1537, Metabolic Activation: NONE, Method: GAS EXPOSURE",inactive; negative
same,mutagenic call,"Test System: AMES SALMONELLA TYPHIMURIUM, Strain/Indicator: TA1537, Metabolic Activation: NONE, Method: PREINCUBATION",inactive; negative
same,mutagenic call,"Test System: AMES SALMONELLA TYPHIMURIUM, Strain/Indicator: TA1537, Metabolic Activation: NONE, Method: STANDARD PLATE",inactive; negative
same,mutagenic call,"Test System: AMES SALMONELLA TYPHIMURIUM, Strain/Indicator: TA1537, Metabolic Activation: RAT LIVER S-9, PHENOBARBITAL AND BETA-NAPHTHOFLAVONE, Method: PREINCUBATION",inactive; negative
same,mutagenic call,"Test System: AMES SALMONELLA TYPHIMURIUM, Strain/Indicator: TA1537, Metabolic Activation: RAT, LIVER, S-9, AROCLOR 1254, Method: STANDARD PLATE",inactive; negative
same,mutagenic call,"Test System: AMES SALMONELLA TYPHIMURIUM, Strain/Indicator: TA1537, Metabolic Activation: RAT, LIVER, S-9, PHENOBARBITAL AND BETA-NAPHTHOFLAVONE, Method: GAS EXPOSURE",inactive; negative
same,mutagenic call,"Test System: AMES SALMONELLA TYPHIMURIUM, Strain/Indicator: TA1538, Metabolic Activation: HAMSTER, LIVER, S-9, AROCLOR 1254, Method: STANDARD PLATE",inactive; negative
same,mutagenic call,"Test System: AMES SALMONELLA TYPHIMURIUM, Strain/Indicator: TA1538, Metabolic Activation: NONE, Method: PREINCUBATION",inactive; negative
same,mutagenic call,"Test System: AMES SALMONELLA TYPHIMURIUM, Strain/Indicator: TA1538, Metabolic Activation: NONE, Method: STANDARD PLATE",inactive; negative
same,mutagenic call,"Test System: AMES SALMONELLA TYPHIMURIUM, Strain/Indicator: TA1538, Metabolic Activation: RAT LIVER S-9, PHENOBARBITAL AND BETA-NAPHTHOFLAVONE, Method: PREINCUBATION",inactive; negative
same,mutagenic call,"Test System: AMES SALMONELLA TYPHIMURIUM, Strain/Indicator: TA1538, Metabolic Activation: RAT, LIVER, S-9, AROCLOR 1254, Method: STANDARD PLATE",inactive; negative
same,mutagenic call,"Test System: E. COLI, Strain/Indicator: WP2UVRA, Metabolic Activation: NONE, Method: GAS EXPOSURE",inactive; negative
same,mutagenic call,"Test System: E. COLI, Strain/Indicator: WP2UVRA, Metabolic Activation: RAT, LIVER, S-9, PHENOBARBITAL AND BETA-NAPHTHOFLAVONE, Method: GAS EXPOSURE",inactive; negative
same,mutagenic call,"Test System: E.COLI, Strain/Indicator: WP2UVRA, Metabolic Activation: NONE, Method: PREINCUBATION",inactive; negative
same,mutagenic call,"Test System: E.COLI, Strain/Indicator: WP2UVRA, Metabolic Activation: RAT LIVER S-9, PHENOBARBITAL AND BETA-NAPHTHOFLAVONE, Method: PREINCUBATION",inactive; negative
same,mutagenic call,"Test System: HUMAN SKIN FIBROBLASTS, Strain/Indicator: 6-THIOGUANINE, Metabolic Activation: NONE",active; positive
same,mutagenic call,"Test System: MOUSE LYMPHOMA, Strain/Indicator: L5178Y (TK+/TK-), Metabolic Activation: RAT, LIVER, S-9, AROCLOR 1254, Method: SUSPENSION/PLATE",active; positive. reevaluation of results: inconclusive
